Results on two molecules are retold here after paper PMC6429436 (Bioconjugate Chemistry, 2019).

The structures appear in SMILES notation. “And” between values parts separate entries of the source, which are not always exact repeats. Equal values may be shown once.

Experiment [1] addresses CTB. The settings on record: LeY-CTB binding, secondary binding site; cited from earlier work.
Experiment [2] has as its target cholera toxin B-subunit (Vibrio cholerae serotype O1, UniProt P01556). Kind of experiment: biochemical. The class given is binding.
Experiment [3] relates to CT-induced swelling of intestinal organoids. Kind of experiment: cells. The class given is cell-based, human.

Chain of cholera toxin B-subunit (P01556 22-124 limits assumed): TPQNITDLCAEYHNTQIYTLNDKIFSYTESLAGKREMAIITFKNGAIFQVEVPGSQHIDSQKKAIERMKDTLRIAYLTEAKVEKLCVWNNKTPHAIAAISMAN

A word on the Kd: it is a measure of binding affinity in units of concentration. Consider `CC(=O)N[C@@H]1[C@@H](O[C@@H]2O[C@@H](C)[C@@H](O)[C@@H](O)[C@@H]2O)[C@H](O[C@@H]2O[C@H](CO)[C@H](O)[C@H](O)[C@H]2O[C@@H]2O[C@@H](C)[C@@H](O)[C@@H](O)[C@@H]2O)[C@@H](CO)O[C@H]1O` [LeY], for which, in experiment [1], the Kd is 1.4 mM.

One may read the IC50 as the concentration that gives 50% inhibition. Turning to `O=C[C@H](O)[C@@H](O)[C@@H](O)[C@H](O)CO` [galactose], the rel. pot. in experiment [2] and in experiment [3] was 1 throughout. The “rel. pot. per sugar” value in experiment [2] and in experiment [3] was 1 throughout. Further, the 50% inhibitory concentration (IC50) is 111 mM in experiment [2] (IC50 (μg/mL)); 100 mM and 18000 µg/mL in experiment [3] (Homo sapiens).
